For this experiment, the target named is human LPAR1 (Homo sapiens (Human), UniProt Q92633). In words: LPAR1 intracellular calcium mobilization assay (antagonist mode, FLIPR). The note with it: CHO-K1 EDG2 cells expressing human LPAR1, LPA 18:2 at EC80 (100 nM), test compound 0.5 nM to 10 μM. Type of experiment: cell-based.
human LPAR1, sequence (Q92633 whole entry): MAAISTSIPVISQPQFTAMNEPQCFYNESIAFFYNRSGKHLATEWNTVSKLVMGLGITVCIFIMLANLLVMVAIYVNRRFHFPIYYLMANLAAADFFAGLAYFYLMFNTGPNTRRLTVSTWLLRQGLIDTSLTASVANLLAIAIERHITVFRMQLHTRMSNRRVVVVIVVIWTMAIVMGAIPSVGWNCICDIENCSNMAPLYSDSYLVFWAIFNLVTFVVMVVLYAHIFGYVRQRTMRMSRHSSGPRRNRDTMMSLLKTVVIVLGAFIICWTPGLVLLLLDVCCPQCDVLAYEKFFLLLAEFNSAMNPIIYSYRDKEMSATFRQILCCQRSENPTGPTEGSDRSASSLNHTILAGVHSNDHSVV
Consider `C[C@@H](OC(=O)Nc1c(-c2ccc(NC(=O)c3cccnc3)cn2)nnn1C)c1cccnc1Cl` [Compound 58, (R)-1-(2-chloropyridin-3-yl)ethyl (1-methyl-4-(5-(nicotinamido)pyridin-2-yl)-1H-1,2,3-triazol-5-yl)carbamate], for which the EC50 came to 205 nM. With `C[C@@H](OC(=O)Nc1c(-c2ccc(NC(=O)CC#N)cn2)nnn1C)c1cccnc1Cl` [Compound 59, (R)-1-(2-chloropyridin-3-yl)ethyl (4-(5-(2-cyanoacetamido)pyridin-2-yl)-1-methyl-1H-1,2,3-triazol-5-yl)carbamate] the figure was 264 nM. With `C[C@@H](OC(=O)Nc1c(-c2ccc(NC(=O)C3(F)CC3)cn2)nnn1C)c1cccnc1Cl` [Compound 60, (R)-1-(2-chloropyridin-3-yl)ethyl (4-(5-(1-fluorocyclopropane-1-carboxamido)pyridin-2-yl)-1-methyl-1H-1,2,3-triazol-5-yl)carbamate] the figure was 140 nM; with `C[C@@H](OC(=O)Nc1c(-c2ccc(NC(=O)c3ccncc3)cn2)nnn1C)c1cccnc1Cl` [Compound 61, (R)-1-(2-chloropyridin-3-yl)ethyl (4-(5-(isonicotinamido)pyridin-2-yl)-1-methyl-1H-1,2,3-triazol-5-yl)carbamate], 134 nM. With `C[C@@H](OC(=O)Nc1c(-c2ccc(NC(=O)[C@H]3C[C@H](F)C3)cn2)nnn1C)c1cccnc1Cl` [Compound 62, (R)-1-(2-chloropyridin-3-yl)ethyl (4-(5-((1r,3R)-3-fluorocyclobutane-1-carboxamido)pyridin-2-yl)-1-methyl-1H-1,2,3-triazol-5-yl)carbamate] the figure was 110 nM; with `C[C@@H](OC(=O)Nc1c(-c2ccc(NC(=O)C3CCC3(F)F)cn2)nnn1C)c1cccnc1Cl` (stereo partly drawn) [Compound 63, (R)-1-(2-chloropyridin-3-yl)ethyl (4-(5-(2,2-difluorocyclobutane-1-carboxamido)pyridin-2-yl)-1-methyl-1H-1,2,3-triazol-5-yl)carbamate], 120 nM; with `C[C@@H](OC(=O)Nc1c(-c2ccc(NC(=O)C34CC(C#N)(C3)C4)cn2)nnn1C)c1cccnc1Cl` [Compound 64, (R)-1-(2-chloropyridin-3-yl)ethyl (4-(5-(3-cyanobicyclo[1.1.1]pentane-1-carboxamido)pyridin-2-yl)-1-methyl-1H-1,2,3-triazol-5-yl)carbamate], 76.4 nM. For the compound `C[C@@H](OC(=O)Nc1c(-c2ccc(NC(=O)[C@@H]3CC3(F)F)cn2)nnn1C)c1cccnc1Cl` [Compound 65, (R)-1-(2-chloropyridin-3-yl)ethyl (4-(5-((S)-2,2-difluorocyclopropane-1-carboxamido)pyridin-2-yl)-1-methyl-1H-1,2,3-triazol-5-yl)carbamate], the EC50 came to 81.9 nM. With `C[C@@H](OC(=O)Nc1c(-c2ccc(NC(=O)C3(C#N)CCC3)cn2)nnn1C)c1cccnc1Cl` [Compound 66, (R)-1-(2-chloropyridin-3-yl)ethyl (4-(5-(1-cyanocyclobutane-1-carboxamido)pyridin-2-yl)-1-methyl-1H-1,2,3-triazol-5-yl)carbamate] the figure was 66.6 nM; with `C[C@@H](OC(=O)Nc1c(-c2ccc(NC(=O)C3(C#N)CC3)cn2)nnn1C)c1cccnc1Cl` [Compound 67, (R)-1-(2-chloropyridin-3-yl)ethyl (4-(5-(1-cyanocyclopropane-1-carboxamido)pyridin-2-yl)-1-methyl-1H-1,2,3-triazol-5-yl)carbamate], 30.8 nM. As to `C[C@@H](OC(=O)Nc1c(-c2ccc(NC(=O)C34CC(C3)C4)cn2)nnn1C)c1cccnc1Cl` [Compound 68, (R)-1-(2-chloropyridin-3-yl)ethyl (4-(5-(bicyclo[1.1.1]pentane-1-carboxamido)pyridin-2-yl)-1-methyl-1H-1,2,3-triazol-5-yl)carbamate], the EC50 was determined as 40.8 nM. Take `C[C@@H](OC(=O)Nc1c(-c2ccc(NC(=O)[C@@H]3C[C@H]3F)cn2)nnn1C)c1cccnc1Cl` [Compound 69, (R)-1-(2-chloropyridin-3-yl)ethyl (4-(5-((1S,2R)-2-fluorocyclopropane-1-carboxamido)pyridin-2-yl)-1-methyl-1H-1,2,3-triazol-5-yl)carbamate]: the half-maximal effective concentration (EC50) is 53 nM. With `C[C@@H](OC(=O)Nc1c(-c2ccc(NC(=O)C34CC(F)(C3)C4)cn2)nnn1C)c1cccnc1Cl` [Compound 70, (R)-1-(2-chloropyridin-3-yl)ethyl (4-(5-(3-fluorobicyclo[1.1.1]pentane-1-carboxamido)pyridin-2-yl)-1-methyl-1H-1,2,3-triazol-5-yl)carbamate] the figure was 47.8 nM; with `C[C@@H](OC(=O)Nc1c(-c2ccc(NC(=O)[C@H]3C[C@@H](F)C3)cn2)nnn1C)c1cccnc1Cl` [Compound 71, (R)-1-(2-chloropyridin-3-yl)ethyl (4-(5-((1s,3S)-3-fluorocyclobutane-1-carboxamido)pyridin-2-yl)-1-methyl-1H-1,2,3-triazol-5-yl)carbamate], 89.7 nM. The figure for `C[C@@H](OC(=O)Nc1c(-c2ccc(NC(=O)C34CC(C(F)(F)F)(C3)C4)cn2)nnn1C)c1cccnc1Cl` [Compound 72, (R)-1-(2-chloroypridin-3-yl)ethyl (1-methyl-4-(5-(3-(trifluoromethyl)bicyclo[1.1.1]pentane-1-carboxamido)pyridin-2-yl)-1H-1,2,3-triazol-5-yl)carbamate] is 17 nM; for `C[C@@H](OC(=O)Nc1c(-c2ccc(NC(=O)C3CC4(CCC4)C3)cn2)nnn1C)c1cccnc1Cl` [Compound 73, (R)-1-(2-chloropyridin-3-yl)ethyl (1-methyl-4-(5-(spiro[3.3]heptane-2-carboxamido)pyridin-2-yl)-1H-1,2,3-triazol-5-yl)carbamate] it is 17.3 nM; for `C[C@@H](OC(=O)Nc1c(-c2ccc(NC(=O)C3(C#N)CC34CCC4)cn2)nnn1C)c1cccnc1Cl` (stereo partly drawn) [Compound 74, (R)-1-(2-chloropyridin-3-yl)ethyl (4-(5-(1-cyanospiro[2.3]hexane-1-carboxamido)pyridin-2-yl)-1-methyl-1H-1,2,3-triazol-5-yl)carbamate] it is 1340 nM. The figure for `C[C@@H](OC(=O)Nc1c(-c2ccc(NC(=O)C#CC3CC3)cn2)nnn1C)c1cccnc1Cl` [Compound 75, (R)-1-(2-chloropyridin-3-yl)ethyl (4-(5-(3-cyclopropylpropiolamido)pyridin-2-yl)-1-methyl-1H-1,2,3-triazol-5-yl)carbamate] is 23.4 nM; for `CC#CC(=O)Nc1ccc(-c2nnn(C)c2NC(=O)O[C@H](C)c2cccnc2Cl)nc1` [Compound 76, (R)-1-(2-chloropyridin-3-yl)ethyl (4 (5-(but-2-ynamido)pyridin-2-yl)-1-methyl-1H-1,2,3-triazol-5-yl)carbamate] it is 275 nM.

Take `C[C@@H](OC(=O)Nc1c(-c2ccc(NC(=O)C3CC4(C3)CC3(CCC3)C4)cn2)nnn1C)c1cccnc1Cl` [Compound 77, (R)-1-(2-chloropyridin-3-yl)ethyl (4-(5-(dispiro[3.1.36.14]decane-2-carboxamido)pyridin-2-yl)-1-methyl-1H-1,2,3-triazol-5-yl)carbamate]: the EC50 was determined as 25.5 nM. With `C[C@@H](OC(=O)Nc1c(-c2ccc(NC(=O)C3(C(F)(F)F)CC4(CCC4)C3)cn2)nnn1C)c1cccnc1Cl` [Compound 78, (R)-1-(2-chloropyridin-3-yl)ethyl (1-methyl-4-(5-(2-(trifluoromethyl)spiro[3.3]heptane-2-carboxamido)pyridin-2-yl)-1H-1,2,3-triazol-5-yl)carbamate] the figure was 83.6 nM; with `C[C@@H](OC(=O)Nc1c(-c2ccc(NC(=O)C3(C#N)CC4(CCC4)C3)cn2)nnn1C)c1cccnc1Cl` [Compound 79, (R)-1-(2-chloropyridin-3-yl)ethyl (4-(5-(2-cyanospiro[3.3]heptane-2-carboxamido)pyridin-2-yl)-1-methyl-1H-1,2,3-triazol-5-yl)carbamate], 16 nM; with `C[C@@H](OC(=O)Nc1c(-c2ccc(NC(=O)C3CC4(CC(C#N)C4)C3)cn2)nnn1C)c1cccnc1Cl` (stereo partly drawn) [Compound 80, (R)-1-(2-chloropyridin-3-yl)ethyl (4-(5-(6-cyanospiro[3.3]heptane-2-carboxamido)pyridin-2-yl)-1-methyl-1H-1,2,3-triazol-5-yl)carbamate], 109 nM. With `C[C@@H](OC(=O)Nc1c(-c2ccc(NC(=O)C3CC4(CC(F)C4)C3)cn2)nnn1C)c1cccnc1Cl` (stereo partly drawn) [Compound 81, (R)-1-(2-chloropyridin-3-yl)ethyl (4-(5-(6-fluorospiro[3.3]heptane-2-carboxamido)pyridin-2-yl)-1-methyl-1H-1,2,3-triazol-5-yl)carbamate] the figure was 22.8 nM; with `C[C@@H](OC(=O)Nc1c(-c2ccc(NC(=O)C34CC(Cl)(C3)C4)cn2)nnn1C)c1cccnc1Cl` [Compound 82, (R)-1-(2-chloropyridin-3-yl)ethyl (4-(5-(3-chlorobicyclo[1.1.1]pentane-1-carboxamido)pyridin-2-yl)-1-methyl-1H-1,2,3-triazol-5-yl)carbamate], 20.4 nM; with `C[C@@H](OC(=O)Nc1c(-c2ccc(NC(=O)C3CC(=O)C3)cn2)nnn1C)c1cccnc1Cl` [Compound 83, (R)-1-(2-chloropyridin-3-yl)ethyl (1-methyl-4-(5-(3-oxocyclobutane-1-carboxamido)pyridin-2-yl)-1H-1,2,3-triazol-5-yl)carbamate], 344 nM.

As for `C[C@@H](OC(=O)Nc1c(-c2ccc(NC(=O)C3CC(C)(C)C3)cn2)nnn1C)c1cccnc1Cl` [Compound 84, (R)-1-(2-chloropyridin-3-yl)ethyl (4-(5-(3,3-dimethylcyclobutane-l-carboxamido)pyridin-2-yl)-1-methyl-1H-1,2,3-triazol-5-yl)carbamate], the half-maximal effective concentration (EC50) is 14.5 nM. With `C[C@@H](OC(=O)Nc1c(-c2ccc(NC(=O)[C@H]3C[C@@]4(CC4(F)F)C3)cn2)nnn1C)c1cccnc1Cl` [Compound 85, (R)-1-(2-chloropyridin-3-yl)ethyl (4-(5-((3R,5r)-1,1-difluorospiro[2.3]hexane-5-carboxamido)pyridin-2-yl)-1-methyl-1H-1,2,3-triazol-5-yl)carbamate] the figure was 11.2 nM.

Source of the values: patent publication US11912686B2 (Gilead Sciences, Inc., priority 2020, dated 2024).
